{"source": "patent US6191152A", "about": "“2-(1,2,4-triazole-1-yl)-1,3,4-thiadiazole derivatives having an effect on the C.N.S. and the heart” (EGIS Gyogyszergyar Rt., priority 1997, dated 2001)", "key": {"[1]": {"system": "isolated rat thoracic aorta", "assay": "Vascular relaxing effect in potassium chloride (20 mM KCl) contracted isolated rat thoracic aorta", "set-up": "species or system rat (male SPRD)", "conditions": "for IC50: Rattus norvegicus, 20 mM KCl contracted strips, 37° C., read-out: IC50 (vascular relaxation in isolated rat thoracic aorta)", "method": "1. Measurement of Vascular Relaxing Effect in Potassium Chloride Contracted Isolated rat Thoracic Aorta\nExperiments were performed in thoracic aortas obtained from male SPRD rats weighing 250 to 300 g. Thoracic aortas excised from rats killed by decapitation and ensanguination were cleaned of fat and connective tissue, then were immediately placed in carbogenized TYRODE solution. The composition of the normal TYRODE solution was the following (in mM): NaCl 114.7, KCl 3.7, CaCl2 3.6, MgCl2 0.49, NaHCO3 19.9, NaH2 PO4 0.32, glucose 5.1.\nTwo mm wide and 20 to 25 mm long strips were cut from the aortas along a helical line at 45° angle. Aortic strips were mounted vertically between two cotton threads in 10 ml organ chambers, the lower threads were attached to the organ chambers and the upper threads were connected to isometric force transducers. The strips were incubated under 1 g resting tension at 37° C. for 120 minutes, then resting vascular tone was recorded. Then the strips were contracted with a TYRODE solution containing 20 mM KCl. The composition of the high potassium TYRODE solution was the following (in mM): NaCl 94.7, KCl 20, CaCl2 3.6, MgCl2 0.49, NaHCO3 19.9, NaH2 PO4 0.32, glucose 5.1.\nWhen stable vascular tone developed, increasing doses of the test substance were added to the organ bath. The effects of each test substance were measured at least in 3 tissue preparations obtained from different animals. Decreases in vascular tension caused by the test substances were expressed as percentage changes and IC50 for each tissue preparation was determined by sigmoid (in few casses linear) curve fitting.\nFor comparison, cromakalim i.e. (±)-trans-3,4-dihydro-3-hydroxy-2,2-dimethyl-4-(2-oxo-1-pyrrolidinyl)-2H-1-benzopyrane-6-carbonitrile was used."}, "[2]": {"system": "isolated guinea-pig papillary muscle", "assay": "Effective refractory period (ERP) prolonging effect in isolated guinea-pig right ventricular papillary muscle, in vitro", "set-up": "species or system guinea-pig (male)", "conditions": "for ERP change at 10^-4 M / ERP change at 10^-5 M: 30 minutes incubation, mean of at least four preparations", "source_text": "2. Measurement of Effective Refracter Period in Guinea-pig Right Ventricular Papillary Muscle, in Vitro.\nEffective refracter period (ERP) is regarded to be the shortest time interval between two identical electrical stimuli when both can evoke a twitch in the papillary muscle. A second stimulus applied earlier than the ERP is not effective. Compounds prolonging ERP can have antiarrhythmic effect. This method is useful primarily for testing antiarrhythmic agents belonging to class III according to the Vaughan Williams classification /Bexton, R. S. and Camm. A., J. Pharmacol. Ther., 17, 315 (1982)/.\nExperiments were performed in a Schuler-type organ bath system having 4 channels. Male guinea-pigs weighing 450 to 750 g were killed by a blow on the head and ensanguinated. The heart was rapidly excised and papillary muscles of appropriate size (lower than 1 mm in diameter) were dissected from the right ventricle. The preparations were vertically mounted in 20 ml organ chambers containing Krebs solution bubbled with carbogen (consisting of 95% of O2 and 5% of CO2) and maintained at 35° C. The upper end of the muscles was connected with cotton threads to force-displacement transducers coupled to a recorder for measuring isometric tension via DC-bridge amplifiers. The lower end of the papillary muscles was pinned to the organ chamber with a silver hook that was also used as a stimulating electrode. The other electrode was immersed into the organ bath and had no direct contact with the preparation. The composition of the Krebs solution was the following (in mm): NaCl 118, KCl 4.8, NaHCO3 27.2, glucose 11.1, MgSO4 1.2, KH2 PO4 1, CaCl2 2.6, pH=7.4.\nThe preparations were equilibrated for 120 minutes under a resting tension of 1 g. During equilibration they were electrically stimulated at a rate of 2 Hz with 1 msec rectangular pulses that were above the diastolic threshold voltage by 10%. ERP was determined using a standard extrastimulus technique. Extrastimuli (S2) were interjected between the normal stimuli (S1) in such a way that the S1 -S2 interval was initially below the refracter period of the tissue. The S1 -S2 interval was then widened by increments of 1 msec until the extrastimulus (S2) evoked twitch of the papillary muscle. The force of the twitch caused by S2 is larger than those caused by normal (S1) stimuli (postextrasystolic potentiation). The equipment measured the shortest S1 -S2 interval at which the extrastimulus evoked a twitch that was larger than the force of control twitches by 25%. This interval is equivalent with the ERP.\nThe experimental protocol was as follows:\nTwo control ERP measurements were performed 20 minutes apart, then appropriate amount of the test substance was added to produce 10^-4 M concentration in the bathing solution. After 30 minutes incubation with the test substance, two ERP measurements were performed 30 minutes apart.\nWhen the test substance increased ERP at 10^-4 M by 40 msec or more, its effect on ERP was tested also at 10^-5 M.\nThe effect of the test substances was characterized by the difference between the first treated and the second control measurements. Individual data obtained from four different preparations, at least, were averaged. The reference substance used was sotalol i.e. N-[4-/1-hydroxy-2-(1-methylethylamino)ethyl/plenyl]methane sulfonamide."}}}
{"compound": "CC1(C)Oc2ccc(C#N)cc2[C@@H](N2CCCC2=O)[C@@H]1O", "note": "(racemic) [cromakalim, (±)-trans-3,4-dihydro-3-hydroxy-2,2-dimethyl-4-(2-oxo-1-pyrrolidinyl)-2H-1-benzopyrane-6-carbonitrile, reference compound]", "values": [{"measurement": "IC50", "setting": "[1]", "result": 130, "unit": "nM"}]}
{"compound": "CN(C)CCCOc1ccccc1-c1nnc(-n2nc(N(C)C)nc2N)s1", "note": "[Example 29, 2-(5-Amino-3-dimethylamino-1H-1,2,4-triazole-1-yl)-5-/ 2-(3-dimethylaminopropoxy)phenyl/-1,3,4-thiadiazole]", "values": [{"measurement": "vascular relaxation of isolated rat thoracic aorta (in words)", "setting": "[1]", "result": "relaxed isolated rat thoracic aorta more effectively than the K^+ channel opener and Ca^2+ channel blocker reference substances"}, {"measurement": "IC50", "setting": "[1]", "result": 71, "unit": "nM"}]}
{"compound": "CC(C)Sc1nc(N)n(-c2nnc(-c3ccccc3OCCCN(C)C)s2)n1", "note": "[Example 30, 2-/5-Amino-3-(2-methylethylthio)-1H-1,2,4-triazole-1-yl/-5-/ 2-(3-dimethylaminopropoxy)phenyl/-1,3,4-thiadiazole]", "values": [{"measurement": "vascular relaxation of isolated rat thoracic aorta (in words)", "setting": "[1]", "result": "relaxed isolated rat thoracic aorta more effectively than the K^+ channel opener and Ca^2+ channel blocker reference substances"}, {"measurement": "IC50", "setting": "[1]", "result": 68, "unit": "nM"}]}
{"compound": "CN(C)CCCOc1ccccc1-c1nnc(-n2nc(N3CCCCC3)nc2N)s1", "note": "[Example 32, 2-(5-Amino-3-piperidino-1H-1,2,4-triazole-1-yl)-5-/ 2-(3-dimethylaminopropoxy)phenyl/-1,3,4-thiadiazole]", "values": [{"measurement": "ERP prolongation (in words)", "setting": "[2]", "result": "remarkable also at 10^-5 M"}, {"measurement": "ERP change at 10^-4 M", "setting": "[2]", "result": 155, "unit": "msec"}, {"measurement": "ERP change at 10^-5 M", "setting": "[2]", "result": 158, "unit": "msec"}]}
{"compound": "CCN(CC)CCOc1ccc(-c2nnc(-n3nc(SC)nc3N)s2)cc1", "note": "[Example 36, 2-(5-Amino-3-methylthio-1H-1,2,4-triazole-1-yl)-5-/ 4-(2-diethylaminoethoxy)phenyl/-1,3,4-thiadiazole]", "values": [{"measurement": "ERP change at 10^-4 M", "setting": "[2]", "result": 53, "unit": "msec"}, {"measurement": "ERP change at 10^-5 M", "setting": "[2]", "result": 15, "unit": "msec"}]}
{"compound": "CSc1nc(N)n(-c2nnc(-c3ccccc3OCCCN3CCCC3)s2)n1", "note": "[Example 43, 2-(5-Amino-3-methylthio-1H-1,2,4-triazole-1-yl)-5-/ 2-(3-pyrrolidinopropoxy)phenyl/-1,3,4-thiadiazole]", "values": [{"measurement": "ERP change at 10^-4 M", "setting": "[2]", "result": 66, "unit": "msec"}, {"measurement": "ERP change at 10^-5 M", "setting": "[2]", "result": 34, "unit": "msec"}]}
{"compound": "CN(C)CCCOc1ccc(-c2nnc(-n3nc(N4CCN(C)CC4)nc3N)s2)cc1", "note": "[Example 47, 2-/5-Amino-3-(4-methylpiperazine-1-yl)-1H-1,2,4-triazole-1-yl/-5-/ 4-(3-dimethylaminopropoxy)phenyl/-1,3,4-thiadiazole]", "values": [{"measurement": "ERP change at 10^-4 M", "setting": "[2]", "result": 123, "unit": "msec"}, {"measurement": "ERP change at 10^-5 M", "setting": "[2]", "result": 2, "unit": "msec"}]}
{"compound": "C=CCN(CC=C)c1nc(N)n(-c2nnc(-c3ccccc3OCCCN(C)C)s2)n1", "note": "[Example 49, 2-(5-Amino-3-diallylamino-1H-1,2,4-triazole-1-yl)-5-/ 2-(3-dimethylaminopropoxy)phenyl/-1,3,4-thiadiazole]", "values": [{"measurement": "IC50", "setting": "[1]", "result": 170, "unit": "nM"}]}
{"compound": "COc1ccc(CCN(C)CCCOc2ccccc2-c2nnc(-n3nc(N4CCCCC4)nc3N)s2)cc1OC", "note": "[Example 99, 2-(5-Amino-3-piperidino-1H-1,2,4-triazole-1-yl)-5-{2-[3-methyl-3-/ 2-(3,4-dimethoxyphenylethyl)amino/-propoxy]phenyl}-1,3,4-thiadiazole]", "values": [{"measurement": "IC50", "setting": "[1]", "result": 130, "unit": "nM"}]}
{"compound": "COc1ccc(CCN(C)CCCOc2ccccc2-c2nnc(-n3nc(SC(C)C)nc3N)s2)cc1OC", "note": "[Example 101, 2-/5-Amino-3-(1-methylethylthio)-1H-1,2,4-triazole-1-yl/-5-{2-[3-methyl-3-/2-(3,4-dimethoxyphenylethyl)amino/propoxy]-phenyl}-1,3,4-thiadiazole]", "values": [{"measurement": "vascular relaxation of isolated rat thoracic aorta (in words)", "setting": "[1]", "result": "relaxed isolated rat thoracic aorta more effectively than the K^+ channel opener and Ca^2+ channel blocker reference substances"}, {"measurement": "IC50", "setting": "[1]", "result": 75, "unit": "nM"}]}
{"compound": "CC(C)NCC(O)c1ccc(NS(C)(=O)=O)cc1", "note": "(centres unmarked) [sotalol, N-[4-/1-hydroxy-2-(1-methylethylamino)ethyl/plenyl]methane sulfonamide, reference compound]", "values": [{"measurement": "ERP change at 10^-4 M", "setting": "[2]", "result": 47, "unit": "msec"}, {"measurement": "ERP change at 10^-5 M", "setting": "[2]", "result": 26, "unit": "msec"}]}
